Laboratory results from patent US5422372A, “Method of increasing intracellular accumulation of hydrophilic anionic agents using gemfibrizol” (priority 1993, dated 1995).
Values after ≈ are worked out from the molar mass of the structure shown. “Also recorded” adds a separate entry of the source. Where two headings read alike, the source gives them in different places. Values belong to the compound of their own block, whether it stands above or below them.

What was measured:
[1] = system: organic anion transporters of J774 cells; experiment: Lucifer Yellow secretion (efflux) from J774 cells; format: cell-based, mouse
Experimental: Cells were incubated in D10 containing 0.5 mg/ml Lucifer Yellow and 5 mM ATP with or without 10 mM penicillin G. The cells were then washed and incubated in fresh medium at 37° C. At intervals, the cells were viewed by fluorescence microscopy.

[2] = system: Listeria monocytogenes in J774 cells; experiment: Intracellular growth of Listeria monocytogenes in J774 cells; format: cell-based
Experimental: J774 cells grown in spinner culture were centrifuged for 5 min. at 1000 RPM. The cells were resuspended in fresh DME+5% HICS without antibiotics at a concentration of 2×10^5. 5 ml of this cell suspension was plated into each 60 mm Petri dish containing multiple 12×1 mm round coverslips (Fisher Scientific Co.) the evening before use to allow the cells to form monolayers on the coverslips. The cells were incubated overnight at 37° C.
L. monocytogenes was incubated overnight in BHI broth to a density of approximately 10^9 /ml in a shaker at 37° C. 1 ml of the bacterial suspension was sedimented in a microfuge tube (USA/Scientific Plastics, Ocala, Fla.) for 1 min at 8000 RPM. The supernatant was removed and the pellet was washed once in 1 ml of PBS at pH 7.4. The bacteria were then resuspended in 1 ml fresh DME+5% HICS, diluted in DME+5% HICS to a concentration of 2×10^5 bacteria per ml, and 5 ml of this suspension (10^6 bacteria total) was placed in each 60 mm dish containing a monolayer of J774 cells (infection ratio 1:1). The dishes were incubated at 35° C. for 60 minutes. The coverslip was then transferred to a new 60 mm petri dish containing 10 ml of pre warmed DME+5% HICS and 5 μg/ml of gentamicin. The cells were incubated in the gentamicin containing medium for 1 hr. at 35° C. to kill extracellular bacteria, as described by Portnoy et al. (9), at which time additional drugs were added as indicated below. One 60 mm dish received no addition (control). Other 60 mm dishes received Gemfibrozil (GFZ) (0.2 mM), and/or Norfloxacin (NFX) at 2, 4 or 8 μg per ml, as indicated. Drugs were added either separately or in combination to make four independent sets: No addition, GFZ alone, NFX alone, or GFZ+NFX. The cultures were further incubated at 35° C. Three coverslips containing the Listeria-infected J774 cells were harvested from each culture dish at 2 hours after infection and at 2 hour intervals thereafter. The number of bacteria in the J774 cells on each cover slip was determined by depositing each coverslip into 5 ml of sterile distilled water in a 15 ml Falcon tube. The tubes were vortexed for 15 sec. to lyse the infected cells and 10 or 50 μL of each Listeria-containing solution was plated onto 10 cm dishes containing LB agar. The LB agar plates were incubated at 37° C. overnight, the bacterial colonies were counted, and the number of bacteria per cover slip was calculated from the number of colonies on the agar. Every data point represents the average of the number of bacterial colonies recovered from three coverslips.

[3] = system: organic anion transporters of J774 cells; format: cell-based, mouse
[4] = system: organic anion transporters of J774 cells; experiment: Intracellular Lucifer Yellow accumulation during ATP permeabilization of J774 cells; format: cell-based, mouse; conditions: for effect on intracellular accumulation of Lucifer Yellow during ATP permeabilization: added together with 0.5 mg/ml Lucifer Yellow and 5 mM ATP
Experimental: The cells were incubated in phosphate buffered saline with divalent cations (PBS) containing 0.5 mg/ml Lucifer Yellow, 5 mM ATP and other compounds, at 37° C. as indicated in the text. The wells were washed with cold phosphate buffered saline without divalent cations (PD) 3 times, and plates were immersed successively in three beakers containing 1,000 ml cold PD. The first beaker also contained 0.1% bovine serum albumin. The cells then were lysed in 0.05% Triton X-100, and fluorescence was measured in a fluorescence spectrophotometer using an excitation wavelength of 430 nm and an emission wavelength 540 nm. Total cell protein was measured by a modification of the Lowery method. (6) Results were expressed as ng Lucifer Yellow/mg protein.
An assay to identify competitive inhibitors of the organic anion transporters that mediate the secretion of Lucifer Yellow was developed. It was reasoned that any substrate of the organic anion transporter small enough to enter the cells through ATP-induced pores, when added together with Lucifer Yellow during ATP permeabilization, would compete with Lucifer Yellow for efflux and cause higher intracellular accumulation of Lucifer Yellow. This assay was used to determine whether various substrates for other organic anion transporters competed with Lucifer Yellow for secretion by J774 cells.

[5] = system: organic anion transporters of J774 cells; conditions: cited from earlier work; for effect on intracellular sequestration and secretion of Lucifer Yellow: macrophages and J774 cells
[6] = system: organic anion transporters of J774 cells; format: cell-based, mouse; conditions: for intracellular accumulation of radiolabel from [3H] norfloxacin: J774 cells incubated with [3H] norfloxacin and the inhibitor
Experimental: [^3 H]-Norfloxacin Retention in J774 Cells: J774 cells were prepared as above. The cells were incubated in PBS with 1.5 μCi/ml [^3 H] norfloxacin in the presence or absence of 10 mM probenecid for various lengths of time, washed and lysed. Cell-associated radioactivity and protein were quantitated as above.

L. monocytogenes [7] = experiment: Extracellular growth assay: minimum inhibitory concentration (MIC); format: cell-based; conditions: Listeria monocytogenes; brain-heart infusion broth; read-out: NFX concentration that blocked growth of LM (MIC)
Experimental: L. monocytogenes were inoculated into 1 ml of BHI broth and grown overnight in BHI broth to a density of approximately 10^9 bacteria per ml, diluted to a concentration of 2×10^3 bacteria per ml in Brain Heart Infusion Broth, and 0.5 ml aliquots of this suspension were placed in separate tubes. Norfloxacin (NFX) at the indicated concentrations in 0.5 ml BHI broth was added to the tubes containing L. monocytogenes, and the bacteria were incubated overnight at 25° C., 30° C. and 35° C. The MIC of NFX for L. monocytogenes was determined by visual inspection (tubes without antibiotic, in which the bacteria grew contained a cloudy suspension).

L. monocytogenes [8] = experiment: Extracellular growth assay: minimum bacteriocidal concentration (MBC); format: cell-based; conditions: Listeria monocytogenes; brain-heart infusion broth; read-out: NFX concentration bacteriocidal for LM (MBC)
Experimental: 10 μl of the contents of each sample from the MIC assay described above was plated on 10 cm plates containing 20 ml. LB, agar, and the plates were incubated overnight at 25° C., 30° C. and 35° C. The number of colonies were counted.

J774 cells = experiment: Uptake of [14C] penicillin G by adherent J774 cells from extracellular medium; format: cell-based, mouse; conditions: even in the presence of 10 mM probenecid
Experimental: It was then questioned whether penicillin G was taken up by J774 cells from the extracellular medium, and whether this uptake was affected by organic anion transporters. In these experiments, adherent J774 cells were incubated in medium containing [^14 C] penicillin G, the cells were washed, and intracellular radiolabel was measured.

[9] = system: organic anion transporters of J774 cells
Toxicity to J774 cells = format: cell-based; conditions: mouse, read-out: concentrations toxic to the cells

Compound: Cc1ccc(C)c(OCCCC(C)(C)C(=O)O)c1 [GFZ, 5-(2,5-dimethylphenoxy)-2,2-dimethylpentanoic acid]
concentration inhibiting Lucifer Yellow secretion relative to PB [1]: ten-fold lower concentration than PB
intracellular growth of LM in J774 cells ([2]; 0.2 mM GFZ alone): has no effect on the rate or extent of growth; also recorded: does not inhibit growth
enhancement of intracellular accumulation of NFX ([3]; 0.2 mM GFZ): four-fold
EC50 ([3]; J774 cells, read-out: ED50 for enhancing intracellular accumulation of [3H]NFX): 15 µM
ED50 lower than the ED50 of PB or sulfinpyrazone ([3]; [3H]NFX accumulation by J774 cells): 30 fold

Compound: O=C(O)[C@H](O)[C@@H](O)[C@H](O)[C@H](O)CO [Gluconic acid]
effect on intracellular norfloxacin concentration ([3]; 10 mM gluconic acid compared with norfloxacin only in PBS): did not affect
effect on intracellular accumulation of Lucifer Yellow during ATP permeabilization [4]: had no effect

Compound: NNC(=O)NN1C(=O)c2cc(S(=O)(=O)O)cc3c(N)c(S(=O)(=O)O)cc(c23)C1=O [Lucifer Yellow]
dye secreted by the cells into the medium ([5]; within 30 minutes after ATP-mediated permeabilization): 80-85%

time at which intracellular norfloxacin concentration reached plateau [6]: ≤ 10 min
MIC (L. monocytogenes [7]): 4 µg/mL (≈ 12.5 µM)
Compound: CCn1cc(C(=O)O)c(=O)c2cc(F)c(N3CCNCC3)cc21 [NFX, Norfloxacin]
intracellular growth of LM in J774 cells ([2]; 2 μg/ml NFX alone): little inhibitory effect; also recorded: slowed intracellular growth
intracellular growth of LM in J774 cells ([2]; 4 μg/ml NFX alone): marked inhibition of intracellular growth; also recorded: bacteriostatic
intracellular growth of LM in J774 cells ([2]; 8 μg/ml NFX alone): bacteriostatic effect
MBC (L. monocytogenes [8]): 8 µg/mL (≈ 25.1 µM)

Compound: CC1(C)S[C@@H]2[C@H](NC(=O)Cc3ccccc3)C(=O)N2[C@H]1C(=O)O [penicillin G]
rate of Lucifer Yellow efflux after co-loading by ATP permeabilization ([1]; 10 mM penicillin G, fluorescence microscopy): reduced the rate of Lucifer Yellow afflux
accumulation of [3H] norfloxacin in preloaded cells ([3]; preloaded with 10 mM by ATP-permeabilization, compared with 10 mM gluconic acid preload): significant increase
intracellular radiolabel after incubation with [14C] penicillin G without ATP permeabilization (J774 cells): could not be readily detected
effect on intracellular accumulation of Lucifer Yellow during ATP permeabilization [4]: increase Lucifer Yellow retention in a dose-dependent manner
penicillin originally inside the cells secreted into the medium [9]: about 80%

Compound: CCCN(CCC)S(=O)(=O)c1ccc(C(=O)O)cc1 [probenecid, Probenecid]
concentrations that block secretion of Lucifer Yellow, penicillin and Norfloxacin [1]: 2 to 5 mM
intracellular accumulation of radiolabel from [3H] norfloxacin [6]: marked increase
time at which intracellular norfloxacin concentration reached plateau ([6]; in the presence of 10 mM probenecid): 30 min
enhancement of intracellular accumulation of norfloxacin ([6]; j774 cells, 10000 µM): 3-4 fold
reversibility of the effect on norfloxacin retention ([3]; 10 mM probenecid 30 minutes, then washed): reversible
EC50 ([3]; 30 minutes, J774 cells, read-out: ED50 for enhancing intracellular retention of norfloxacin): 500 µM
[3H] norfloxacin remaining in cells after probenecid removal relative to cells never incubated in probenecid ([3]; steady state after removal of 10 mM probenecid): twice
increase of intracellular retention of Lucifer Yellow ([4]; 5-10 mM probenecid in medium with Lucifer Yellow and ATP): 2.5 fold
intracellular penicillin secreted from the cells ([9]; after 30 minutes, in the presence of 10 mM probenecid): 37%
effect on intracellular sequestration and secretion of Lucifer Yellow [5]: inhibit both intracellular sequestration and secretion of Lucifer Yellow

Compound: NC(=O)c1cnccn1 [pyrazinamide]
effect on intracellular accumulation of Lucifer Yellow during ATP permeabilization [4]: had no effect

Compound: O=C1C(CC[S+]([O-])c2ccccc2)C(=O)N(c2ccccc2)N1c1ccccc1 (centres unmarked) [sulfinpyrazone]
MCC (Toxicity to J774 cells): > 2.5 mM
concentrations that block secretion of Lucifer Yellow, penicillin and Norfloxacin [1]: 2 to 5 mM
intracellular accumulation of radiolabel from [3H] norfloxacin [6]: marked increase
ED50 for enhancing intracellular retention of norfloxacin (in words) ([3]; 30 minutes, J774 cells): essentially the same as that for probenecid
effect on intracellular sequestration and secretion of Lucifer Yellow [5]: inhibit both intracellular sequestration and secretion of Lucifer Yellow
